Active and inactive are the calls of the source.
How the values were obtained:
SN12K1 = experiment: cells; format: functional; details: Homo sapiens
P388 = experiment: cells; format: functional; details: Mus musculus
INS1 = experiment: beta cell apoptosis inhibitors, cytokine rescue, dose response, luminescence, retest (AID 449756); format: functional, cell-based; details: Rattus norvegicus;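 further: cell death triggered by IL-1 beta plus TNF-alpha plus IFN-gamma mixture; protective hits raise ATP signal compared with cytokine alone wells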
[1] = Luminescence Cell-Based Dose Retest to Confirm Inhibitors of Cancer Stem Cells. [Related pubchem assays (depositor defined):AID2717, AID2721]; format: functional; details: Homo sapiens
[2] = target: Heat shock protein HSP 90-alpha (Homo sapiens, UniProt P07900); format: functional, organism-based
P388/ADR = experiment: cells; format: functional; details: Mus musculus
[3] = inhibitors of HIV Env-driven cell fusion, dose response, cherry-pick (AID 652057); format: functional, cell-based
[4] = off-target signal loss in HeLa-CEM21 co-culture – HeLa F-luc CTL cells, cherry-picked, counter-screen for HIV-1 Env fusion inhibitor project, dose response (AID 652040); format: functional, cell-based;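 further: potency for signal decrease marking cytotoxic or nonspecific inhibition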
[5] = inhibitors of clade B AD8 Env fusion, dose response, cell-based, cherry-pick (AID 652062); format: functional;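 further: luciferase signal from cell-cell fusion driven by HIV-1 clade B AD8 Env; potency is for inhibitors of fusion seen as a drop in luminescence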
Genome polyprotein = Genome polyprotein (dengue virus type 2, UniProt P29990); experiment: Dengue-2 NS5 methyltransferase inhibitors, primary screen, biochemical, confirmation dose response (AID 588689); format: functional
Aminopeptidase N = target: T1, Aminopeptidase N (Plasmodium falciparum FcB1/Columbia, UniProt O96935); experiment: P. falciparum M1AAP inhibitors, biochemical, fluorogenic H-Leu-NHMec substrate, 1536-well (AID 1445); parameters: species or system Plasmodium falciparum 3D7, 3D7
T1 sequence (O96935 whole entry): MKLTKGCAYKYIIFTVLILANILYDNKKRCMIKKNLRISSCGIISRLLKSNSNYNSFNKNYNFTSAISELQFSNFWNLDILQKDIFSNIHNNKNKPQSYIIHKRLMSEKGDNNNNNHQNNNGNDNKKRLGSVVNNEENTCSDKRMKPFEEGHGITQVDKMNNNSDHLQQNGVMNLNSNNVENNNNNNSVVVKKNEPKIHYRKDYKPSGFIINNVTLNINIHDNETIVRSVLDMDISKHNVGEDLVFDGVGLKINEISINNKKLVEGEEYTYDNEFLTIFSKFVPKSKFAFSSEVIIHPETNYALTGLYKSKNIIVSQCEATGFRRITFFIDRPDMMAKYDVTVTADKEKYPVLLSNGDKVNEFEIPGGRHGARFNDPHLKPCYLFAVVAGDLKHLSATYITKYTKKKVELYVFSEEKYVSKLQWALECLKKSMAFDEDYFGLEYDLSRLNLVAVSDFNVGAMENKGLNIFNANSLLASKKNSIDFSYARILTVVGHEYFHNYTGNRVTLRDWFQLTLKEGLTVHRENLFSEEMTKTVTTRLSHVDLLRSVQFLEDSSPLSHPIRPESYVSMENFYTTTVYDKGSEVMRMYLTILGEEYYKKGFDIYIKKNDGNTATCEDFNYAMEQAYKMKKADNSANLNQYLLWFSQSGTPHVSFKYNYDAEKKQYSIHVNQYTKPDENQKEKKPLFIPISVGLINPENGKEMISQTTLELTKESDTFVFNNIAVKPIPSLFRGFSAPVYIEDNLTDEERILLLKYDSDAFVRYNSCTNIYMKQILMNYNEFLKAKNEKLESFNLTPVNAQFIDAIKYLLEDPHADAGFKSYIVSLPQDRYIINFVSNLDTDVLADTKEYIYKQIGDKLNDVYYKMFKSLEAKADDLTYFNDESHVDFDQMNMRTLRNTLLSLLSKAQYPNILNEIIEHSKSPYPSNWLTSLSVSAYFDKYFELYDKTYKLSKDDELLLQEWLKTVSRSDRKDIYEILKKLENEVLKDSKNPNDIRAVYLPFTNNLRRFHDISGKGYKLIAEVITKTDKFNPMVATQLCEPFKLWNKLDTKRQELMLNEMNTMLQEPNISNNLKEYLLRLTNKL

[6] = target: FAD-linked sulfhydryl oxidase ALR (Homo sapiens, UniProt P55789); experiment: inhibitors of human ALR sulfhydryl oxidase, dose response, biochemical, H2O2 detection, luminescence, cherry-pick (AID 493248)
Nonstructural protein 1 = Nonstructural protein 1 (Influenza A virus, UniProt Q194T2); format: functional, Influenza A virus (A/California/07/2009(H1N1))
Large T antigen = Large T antigen (Simian virus 40, UniProt P03070); format: functional, Betapolyomavirus macacae;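 further: Confirmatory-stage PubChem screen for compounds that inhibit SV40 T antigen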
Large T antigen, sequence (P03070 whole entry): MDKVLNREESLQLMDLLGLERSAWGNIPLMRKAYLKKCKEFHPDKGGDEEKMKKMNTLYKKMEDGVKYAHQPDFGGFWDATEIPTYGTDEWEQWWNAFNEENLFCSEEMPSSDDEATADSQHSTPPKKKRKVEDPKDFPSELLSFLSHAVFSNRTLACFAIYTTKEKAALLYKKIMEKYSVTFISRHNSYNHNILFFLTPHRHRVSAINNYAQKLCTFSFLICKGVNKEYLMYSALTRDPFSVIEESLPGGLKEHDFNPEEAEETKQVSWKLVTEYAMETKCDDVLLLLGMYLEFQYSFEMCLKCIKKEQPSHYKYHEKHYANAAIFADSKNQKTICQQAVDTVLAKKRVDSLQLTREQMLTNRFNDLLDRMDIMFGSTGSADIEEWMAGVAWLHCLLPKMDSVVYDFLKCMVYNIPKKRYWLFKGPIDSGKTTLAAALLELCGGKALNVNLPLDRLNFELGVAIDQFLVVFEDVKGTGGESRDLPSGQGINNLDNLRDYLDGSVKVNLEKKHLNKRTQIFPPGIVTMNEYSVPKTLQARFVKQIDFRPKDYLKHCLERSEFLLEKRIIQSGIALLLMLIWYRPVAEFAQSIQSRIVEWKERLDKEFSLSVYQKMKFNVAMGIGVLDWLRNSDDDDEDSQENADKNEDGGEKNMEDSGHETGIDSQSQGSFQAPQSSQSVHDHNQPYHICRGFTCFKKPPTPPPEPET

FAD-linked sulfhydryl oxidase ALR, sequence (P55789 whole entry): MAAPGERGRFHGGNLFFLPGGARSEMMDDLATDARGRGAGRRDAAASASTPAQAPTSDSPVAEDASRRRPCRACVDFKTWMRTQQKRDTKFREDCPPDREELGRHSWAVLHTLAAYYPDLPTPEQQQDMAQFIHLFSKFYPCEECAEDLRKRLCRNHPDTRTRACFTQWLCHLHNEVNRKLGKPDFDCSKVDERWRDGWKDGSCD
Nonstructural protein 1, sequence (Q194T2 whole entry): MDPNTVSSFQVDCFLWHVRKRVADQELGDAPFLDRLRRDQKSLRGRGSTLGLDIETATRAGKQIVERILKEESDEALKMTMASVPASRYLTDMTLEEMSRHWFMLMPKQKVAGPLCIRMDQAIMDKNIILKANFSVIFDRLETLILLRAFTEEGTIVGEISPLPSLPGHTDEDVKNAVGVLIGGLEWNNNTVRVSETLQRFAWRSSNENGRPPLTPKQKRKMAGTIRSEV
Genome polyprotein, sequence (P29990 2492-3391 limits assumed): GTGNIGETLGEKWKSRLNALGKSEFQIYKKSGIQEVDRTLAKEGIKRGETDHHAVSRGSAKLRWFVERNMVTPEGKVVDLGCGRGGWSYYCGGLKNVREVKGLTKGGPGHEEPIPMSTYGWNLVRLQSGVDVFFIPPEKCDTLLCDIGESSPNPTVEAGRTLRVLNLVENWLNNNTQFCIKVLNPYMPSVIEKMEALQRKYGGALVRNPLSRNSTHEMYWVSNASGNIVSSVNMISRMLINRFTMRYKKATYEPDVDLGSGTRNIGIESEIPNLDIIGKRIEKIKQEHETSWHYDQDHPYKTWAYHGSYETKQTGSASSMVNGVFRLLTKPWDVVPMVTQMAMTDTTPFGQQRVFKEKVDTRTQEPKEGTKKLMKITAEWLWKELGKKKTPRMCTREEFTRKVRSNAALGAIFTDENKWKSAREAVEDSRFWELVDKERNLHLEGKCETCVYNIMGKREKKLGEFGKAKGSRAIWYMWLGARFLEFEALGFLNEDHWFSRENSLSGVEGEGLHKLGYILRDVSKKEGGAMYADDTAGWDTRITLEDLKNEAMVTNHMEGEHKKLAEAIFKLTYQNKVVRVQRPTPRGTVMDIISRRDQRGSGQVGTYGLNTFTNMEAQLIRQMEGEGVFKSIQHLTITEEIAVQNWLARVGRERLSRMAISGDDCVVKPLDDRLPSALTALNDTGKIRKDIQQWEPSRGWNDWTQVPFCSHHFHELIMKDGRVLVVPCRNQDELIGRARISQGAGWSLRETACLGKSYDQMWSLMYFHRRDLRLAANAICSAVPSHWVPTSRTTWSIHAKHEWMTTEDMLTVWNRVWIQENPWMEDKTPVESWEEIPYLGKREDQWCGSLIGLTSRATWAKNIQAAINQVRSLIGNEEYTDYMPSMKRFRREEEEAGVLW

N/C(S)=N/N=C/c1ccc(O)cn1
GI50 (SN12K1): 3.61 µM (inactive) | GI50 (P388): 1.95 µM (inactive)

COc1ccc(CCNc2ccc(C(CC(N)=O)NC(=O)c3ccc(Br)cc3)cc2[N+](=O)[O-])cc1 (stereo unspecified)
AC50 (INS1): 12.9 µM (active) | AC50 [1]: 5.51 µM (active)

O=S(=O)(NC1CC2CCC1C2)c1ccc(Cl)cc1 (stereo unspecified)
AC50 [2]: 0.538 µM (active)

COc1cc2cc(c1Cl)N(C)C(=O)C[C@H](OC(=O)[C@H](C)N(C)C(C)=O)[C@]1(C)O[C@H]1[C@H](C)[C@@H]1C[C@@](O)(NC(=O)O1)[C@H](OC)/C=C/C=C(/C)C2
GI50 (SN12K1): 0.0262 µM (active) | GI50 (P388): 0.025 µM (active) | GI50 (P388/ADR): 0.025 µM (active)

Nc1c(/N=N/c2ccc(-c3ccc(/N=N/c4c(O)ccc5cc(S(=O)(=O)O)cc(S(=O)(=O)O)c45)cc3)cc2)c(S(=O)(=O)O)cc2cc(S(=O)(=O)O)c(/N=N/c3ccccc3)c(O)c12
GI50 (SN12K1): > 100 µM (inactive) | GI50 (P388): > 100 µM (inactive)

Cc1ccc2nc(-c3cccc(NS(C)(=O)=O)c3)cc(-c3ccccc3)c2c1
AC50 [1]: 4.13 µM (active) | AC50 [2]: 4.75 µM (active)

C=CC[N+](CCO)(CCO)CCCCCCCCCCCCCCCCCC
GI50 (SN12K1): 6.08 µM (inactive) | GI50 (P388): 0.486 µM (active) | GI50 (P388/ADR): 5.3 µM (inactive)

CCOC(=O)c1cccc(NS(=O)(=O)c2ccc(NC(C)=O)cc2)c1
AC50 [3]: 4.26 µM (active) | AC50 [4]: 39.7 µM (active) | AC50 [5]: 10 µM (active)

COC(=O)c1ccc(COc2ccccc2/C=N/Nc2cccc(C(=O)O)c2)cc1
IC50 (Genome polyprotein): 76.2 µM (active) | IC50 (Aminopeptidase N): 47 µM (active)

Sc1n[nH]c(-c2csc3c2CCCC3)n1
AC50 [6]: 0.044 µM (active)

O=C(CC(NCc1ccccn1)C(=O)O)Nc1ccccc1Cl (stereo unspecified)
IC50 (Nonstructural protein 1): 1.48 µM (active)

CN(C)c1ccc(NC(=O)CSc2nnc(-c3cnccn3)n2C)cc1
IC50 (Large T antigen): 17.8 µM (active)

O=C1c2ccccc2C(=O)N1CCc1c[nH]c2ccc(O)cc12
IC50 (Large T antigen): 59.7 µM (active)

CC(C)OCCCN=C(S)N1CCC(C(=O)c2ccc(Cl)cc2)CC1
AC50 (INS1): 36.9 µM (active)

CCN(CC)c1ccc(CN(C(=O)c2cccs2)C2CCS(=O)(=O)C2)cc1 (stereo unspecified)
AC50 [6]: 2.65 µM (active)
